Experimental data from PubChem BioAssay AID256 (DTP/NCI, 2004).
Several values for one entry are separate records, joined by “and”; a condition that tells them apart may be missing. Equal entries are not always repeated. Toxic doses and inconclusive results are not listed. Rule for the calls: active = survival T/C of 150% or more; inactive = T/C below 125% in these data.

Test system: CD2F1 mice, L1210 leukemia ip, survival T/C
Experiment: NCI In Vivo Anticancer Drug Screen. Data for tumor model L1210 Leukemia (intraperitoneal) in CD2F1 (CDF1) mice
Details: higher = longer survival
In short: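 Activity against a transplanted murine tumor was judged by comparing the compound group with a vehicle group. The outcome in the treated animals was divided by that in the controls.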

[1] = endpoint: mean survival time, dose: 100.0 mg/kg/injection, schedule: Q01DX001 (ip), vehicle: saline with Tween-80
[2] = endpoint: mean survival time, dose: 200.0 mg/kg/injection, schedule: Q01DX001 (ip), vehicle: saline with Tween-80
[3] = endpoint: mean survival time, dose: 50.0 mg/kg/injection, schedule: Q01DX009 (ip), vehicle: saline with Tween-80
[4] = endpoint: mean survival time, dose: 100.0 mg/kg/injection, schedule: Q01DX009 (ip), vehicle: saline with Tween-80
[5] = endpoint: mean survival time, dose: 200.0 mg/kg/injection, schedule: Q01DX009 (ip), vehicle: saline with Tween-80
[6] = endpoint: mean survival time, dose: 400.0 mg/kg/injection, schedule: Q01DX001 (ip), vehicle: saline with Tween-80
[7] = endpoint: mean survival time, dose: 50.0 mg/kg/injection, schedule: Q01DX009 (ip), vehicle: Klucel (hydroxypropylcellulose) (HPC)
[8] = endpoint: mean survival time, dose: 100.0 mg/kg/injection, schedule: Q01DX009 (ip), vehicle: Klucel (hydroxypropylcellulose) (HPC)
[9] = endpoint: mean survival time, dose: 100.0 mg/kg/injection, schedule: Q04DX003 (ip), vehicle: saline with Tween-80
[10] = endpoint: mean survival time, dose: 200.0 mg/kg/injection, schedule: Q04DX003 (ip), vehicle: saline with Tween-80
[11] = endpoint: mean survival time, dose: 400.0 mg/kg/injection, schedule: Q04DX003 (ip), vehicle: saline with Tween-80
[12] = endpoint: mean survival time, dose: 100.0 mg/kg/injection, schedule: Q01DX001 (ip), vehicle: saline
[13] = endpoint: mean survival time, dose: 200.0 mg/kg/injection, schedule: Q01DX001 (ip), vehicle: saline
[14] = endpoint: mean survival time, dose: 400.0 mg/kg/injection, schedule: Q01DX001 (ip), vehicle: saline
[15] = endpoint: mean survival time, dose: 400.0 mg/kg/injection, schedule: Q01DX009 (ip), vehicle: saline with Tween-80
[16] = endpoint: mean survival time, dose: 100.0 mg/kg/injection, schedule: Q04DX002 (ip), vehicle: saline with Tween-80
[17] = endpoint: mean survival time, dose: 200.0 mg/kg/injection, schedule: Q04DX002 (ip), vehicle: saline with Tween-80

Measured: T/C

Cc1cc2n[se]nc2cc1C
inactive: endpoint: median survival time, dose: 3.12 mg/kg/injection, schedule: Q01DX009 (ip), vehicle: Klucel (hydroxypropylcellulose) (HPC) 94 % of control | endpoint: median survival time, dose: 6.25 mg/kg/injection, schedule: Q01DX009 (ip), vehicle: Klucel (hydroxypropylcellulose) (HPC) 95 % of control | endpoint: median survival time, dose: 12.5 mg/kg/injection, schedule: Q01DX009 (ip), vehicle: Klucel (hydroxypropylcellulose) (HPC) 98 % of control | endpoint: median survival time, dose: 25.0 mg/kg/injection, schedule: Q01DX009 (ip), vehicle: Klucel (hydroxypropylcellulose) (HPC) 101 % of control

O=[N+]([O-])c1ccc(C[N+]23CCN(CC2)CC3)cc1
inactive: [1] 100 % of control | [2] 106 % of control

Cc1cc(Cl)ccc1NC(=O)OCCOc1ccc([N+](=O)[O-])cc1
inactive: [3] 96 % of control | [4] 96 % of control | [5] 100 % of control

Nc1ccc(-c2nc(N)[nH]c(=O)c2N)cc1
inactive: [1] 96 % of control | [2] 92 % of control | [6] 88 % of control

CCc1c(CC(=O)O)c2cc(C)ccc2n1Cc1ccc(Cl)cc1
inactive: endpoint: mean survival time, dose: 3.12 mg/kg/injection, schedule: Q01DX009 (ip), vehicle: Klucel (hydroxypropylcellulose) (HPC) 91 % of control | endpoint: mean survival time, dose: 6.25 mg/kg/injection, schedule: Q01DX009 (ip), vehicle: Klucel (hydroxypropylcellulose) (HPC) 104 % of control | endpoint: mean survival time, dose: 12.5 mg/kg/injection, schedule: Q01DX009 (ip), vehicle: Klucel (hydroxypropylcellulose) (HPC) 107 % of control | endpoint: mean survival time, dose: 25.0 mg/kg/injection, schedule: Q01DX009 (ip), vehicle: Klucel (hydroxypropylcellulose) (HPC) 102 % of control | [7] 91 % of control | [8] 96 % of control

Cc1cc(C)c(C(=O)CC(O)(C(F)(F)F)C(F)(F)F)c(C)c1
inactive: [9] 115 % of control | [10] 107 % of control | [11] 107 % of control

CCCCCCCCC(Sc1nn(C2OC(COC(=O)c3ccccc3)C(OC(=O)c3ccccc3)C2OC(=O)c2ccccc2)c(=O)[nH]c1=O)C(=O)OCC (stereo not given)
inactive: endpoint: mean survival time, dose: 12.5 mg/kg/injection, schedule: Q01DX005 (ip), vehicle: distilled water + Tween-80 101 % of control | endpoint: mean survival time, dose: 25.0 mg/kg/injection, schedule: Q01DX005 (ip), vehicle: distilled water + Tween-80 100 % of control | endpoint: mean survival time, dose: 50.0 mg/kg/injection, schedule: Q01DX005 (ip), vehicle: distilled water + Tween-80 100 % of control | endpoint: mean survival time, dose: 100.0 mg/kg/injection, schedule: Q01DX005 (ip), vehicle: distilled water + Tween-80 97 % of control | endpoint: mean survival time, dose: 200.0 mg/kg/injection, schedule: Q01DX005 (ip), vehicle: distilled water + Tween-80 97 % of control

CCOC(=O)C#CC1CCCCC1
inactive: [3] 98 % of control | [4] 98 % of control | [5] 102 % of control

O=C(CC(NC(=O)OCc1ccccc1)C(=O)O)OCc1ccccc1 (stereo not given)
inactive: [9] 103 % of control | [10] 95 % of control | [11] 102 % of control

COc1nc(N)nc2c1nnn2C1OC(CO)C(O)C1O (stereo not given)
inactive: [7] 117 % of control

Cc1cc(F)ccc1[As](=O)(O)O
inactive: endpoint: mean survival time, dose: 6.25 mg/kg/injection, schedule: Q04DX003 (ip), vehicle: saline with Tween-80 103 % of control | endpoint: mean survival time, dose: 12.5 mg/kg/injection, schedule: Q04DX003 (ip), vehicle: saline with Tween-80 95 % of control | endpoint: mean survival time, dose: 25.0 mg/kg/injection, schedule: Q04DX003 (ip), vehicle: saline with Tween-80 97 % of control

BrCc1ccccc1C[P+](c1ccccc1)(c1ccccc1)c1ccccc1
inactive: endpoint: mean survival time, dose: 3.13 mg/kg/injection, schedule: Q01DX009 (ip), vehicle: saline sonified 107 % of control | endpoint: mean survival time, dose: 6.25 mg/kg/injection, schedule: Q01DX009 (ip), vehicle: saline sonified 96 % of control | endpoint: mean survival time, dose: 12.5 mg/kg/injection, schedule: Q04DX003 (ip), vehicle: saline sonified 107 % of control | endpoint: mean survival time, dose: 25.0 mg/kg/injection, schedule: Q04DX003 (ip), vehicle: saline sonified 100 % of control

COC1OC(COC(c2ccccc2)(c2ccccc2)c2ccccc2)C(O)C(O)C1O (stereo not given)
inactive: [12] 100 % of control | [4] 106 % of control | [13] 97 % of control | [5] 96 % of control | [14] 92 % of control | [15] 98 % of control

CCOC(=O)c1ccc(NNS(=O)(=O)c2cccc(N)c2)cc1
inactive: [8] 97 % of control | [9] 96 % of control | endpoint: mean survival time, dose: 200.0 mg/kg/injection, schedule: Q01DX009 (ip), vehicle: Klucel (hydroxypropylcellulose) (HPC) 93 % of control | [10] 101 % of control | endpoint: mean survival time, dose: 400.0 mg/kg/injection, schedule: Q01DX009 (ip), vehicle: Klucel (hydroxypropylcellulose) (HPC) 101 % of control | [11] 95 % of control

C[Si](OCc1ccc(-c2ccccc2)cc1)c1ccccc1
inactive: endpoint: mean survival time, dose: 100.0 mg/kg/injection, schedule: Q01DX009 (ip), vehicle: saline 99 % of control | endpoint: mean survival time, dose: 100.0 mg/kg/injection, schedule: Q04DX003 (ip), vehicle: saline 96 % of control | endpoint: mean survival time, dose: 200.0 mg/kg/injection, schedule: Q01DX009 (ip), vehicle: saline 100 % of control | endpoint: mean survival time, dose: 200.0 mg/kg/injection, schedule: Q04DX003 (ip), vehicle: saline 93 % of control | endpoint: mean survival time, dose: 400.0 mg/kg/injection, schedule: Q01DX009 (ip), vehicle: saline 94 % of control | endpoint: mean survival time, dose: 400.0 mg/kg/injection, schedule: Q04DX003 (ip), vehicle: saline 98 % of control

CN(C(=O)c1c(Cl)n(C)c2ccccc12)c1ccccc1
inactive: endpoint: mean survival time, dose: 25.0 mg/kg/injection, schedule: Q04DX003 (ip), vehicle: Klucel (hydroxypropylcellulose) (HPC) 98 % of control | endpoint: mean survival time, dose: 50.0 mg/kg/injection, schedule: Q04DX003 (ip), vehicle: Klucel (hydroxypropylcellulose) (HPC) 101 % of control | endpoint: mean survival time, dose: 100.0 mg/kg/injection, schedule: Q04DX003 (ip), vehicle: Klucel (hydroxypropylcellulose) (HPC) 104 % of control

CNC(=O)c1ccccc1N=NN(C)C
inactive: endpoint: mean survival time, dose: 18.75 mg/kg/injection, schedule: Q01DX009 (ip), vehicle: Klucel (hydroxypropylcellulose) (HPC) 98 % of control and 103 % of control and 106 % of control | endpoint: mean survival time, dose: 37.5 mg/kg/injection, schedule: Q01DX009 (ip), vehicle: Klucel (hydroxypropylcellulose) (HPC) 122 % of control and 98 % of control and 105 % of control | endpoint: mean survival time, dose: 75.0 mg/kg/injection, schedule: Q01DX009 (ip), vehicle: Klucel (hydroxypropylcellulose) (HPC) 122 % of control

CNc1cc(=O)[nH]cn1
inactive: [1] 95 % of control | [2] 100 % of control | [6] 101 % of control

OCC1OC(n2cnc3c(NCCc4ccccc4)ncnc32)C(O)C1O (stereo not given)
inactive: endpoint: mean survival time, dose: 12.5 mg/kg/injection, schedule: Q01DX005 (ip), vehicle: other 101 % of control | endpoint: mean survival time, dose: 25.0 mg/kg/injection, schedule: Q01DX005 (ip), vehicle: other 110 % of control | endpoint: mean survival time, dose: 50.0 mg/kg/injection, schedule: Q01DX005 (ip), vehicle: other 92 % of control

OCC(O)C1OC(OCc2ccccc2)C(O)C(O)C1O (stereo not given)
inactive: [12] 101 % of control | [13] 98 % of control | [14] 98 % of control

O=C(O)/C=C/C(=O)Nc1cccc2cccnc12
inactive: [4] 93 % of control | [9] 98 % of control | [5] 102 % of control | [10] 93 % of control | [15] 100 % of control | [11] 98 % of control

O=S1(=O)C[CH-]C1.[C-]#[O+].[C-]#[O+].[C-]#[O+].[W].[c-]1[c-][c-][cH-][c-]1
inactive: endpoint: mean survival time, dose: 50.0 mg/kg/injection, schedule: Q04DX002 (ip), vehicle: saline with Tween-80 93 % of control | [16] 101 % of control | [17] 89 % of control

CCNC(=O)OCc1c(COC(=O)NCC)c(-c2ccc(Cl)c(Cl)c2)n2c1CCC2
inactive: endpoint: mean survival time, dose: 0.78 mg/kg/injection, schedule: Q01DX009 (ip), vehicle: saline with Tween-80 101 % of control | endpoint: mean survival time, dose: 1.56 mg/kg/injection, schedule: Q01DX009 (ip), vehicle: saline with Tween-80 108 % of control | [3] 91 % of control and 94 % of control and 111 % of control

CC(Cc1ccccc1)NC(C)Cc1ccccc1 (stereo not given)
inactive: [9] 98 % of control | [10] 102 % of control

CC1(c2ccccc2)C=CC(=O)CC1 (stereo not given)
inactive: [16] 93 % of control | [17] 101 % of control | endpoint: mean survival time, dose: 400.0 mg/kg/injection, schedule: Q04DX002 (ip), vehicle: saline with Tween-80 97 % of control
